Columns and labels:
Test in all cases: relative viability (nuclei count vs DMSO), 5 days (fraction); higher = more cells survive
201T = test system: 201T
Procedure, shortened: (§1)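 Cells from lung cancer lines were seeded into 1536-well plates and, one day later, dosed by pin tool. Treatments were either a single drug or a fixed dose of an anchor drug with five library-drug doses (not always all listed) in √10 steps. After 5 days, nuclei were stained in a one-step fixation (final 0.05% Triton X-100, 1% formaldehyde, 1 ug/ml Hoechst) and counted on 4× images, and relative viability is the treated-to-vehicle nuclei ratio, as the median of duplicate plates.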

BEN = test system: BEN
Procedure, shortened: as §1

HCC-827 = test system: HCC-827
Procedure, shortened: as §1

LCLC-103H = test system: LCLC-103H
Procedure, shortened: as §1

LCLC-97TM1 = test system: LCLC-97TM1
Procedure, shortened: as §1

LXF-289 = test system: LXF-289
Procedure, shortened: as §1

NCI-H1395 = test system: NCI-H1395
Procedure, shortened: as §1

NCI-H1437 = test system: NCI-H1437
Procedure, shortened: as §1

NCI-H1650 = test system: NCI-H1650
Procedure, shortened: as §1

NCI-H1792 = test system: NCI-H1792
Procedure, shortened: as §1

NCI-H1793 = test system: NCI-H1793
Procedure, shortened: as §1

NCI-H1944 = test system: NCI-H1944
Procedure, shortened: as §1

NCI-H2087 = test system: NCI-H2087
Procedure, shortened: as §1

NCI-H2405 = test system: NCI-H2405
Procedure, shortened: as §1

NCI-H3122 = test system: NCI-H3122
Procedure, shortened: as §1

NCI-H322M = test system: NCI-H322M
Procedure, shortened: as §1

NCI-H647 = test system: NCI-H647
Procedure, shortened: as §1

NCI-H727 = test system: NCI-H727
Procedure, shortened: as §1

RERF-LC-KJ = test system: RERF-LC-KJ
Procedure, shortened: as §1

SK-LU-1 = test system: SK-LU-1
Procedure, shortened: as §1

## Nc1ccn([C@@H]2O[C@H](CO)[C@@H](O)[C@@H]2O)c(=O)n1 [Cytarabine] + Nc1ncn([C@H]2C[C@H](O)[C@@H](CO)O2)c(=O)n1 [Decitabine] (partner 2 µM)
201T; first compound 0.005 µM
  relative viability: 0.847
201T; first compound 0.01581 µM
  relative viability: 0.853
201T; first compound 0.05 µM
  relative viability: 0.802
201T; first compound 0.1581 µM
  relative viability: 0.72
201T; first compound 0.5 µM
  relative viability: 0.668
BEN; first compound 0.005 µM
  relative viability: 0.675
BEN; first compound 0.01581 µM
  relative viability: 0.558
BEN; first compound 0.05 µM
  relative viability: 0.43
BEN; first compound 0.1581 µM
  relative viability: 0.345
BEN; first compound 0.5 µM
  relative viability: 0.31
HCC-827; first compound 0.005 µM
  relative viability: 0.232
HCC-827; first compound 0.01581 µM
  relative viability: 0.239
HCC-827; first compound 0.05 µM
  relative viability: 0.182
HCC-827; first compound 0.1581 µM
  relative viability: 0.152
HCC-827; first compound 0.5 µM
  relative viability: 0.167
LCLC-103H; first compound 0.005 µM
  relative viability: 0.71
LCLC-103H; first compound 0.01581 µM
  relative viability: 0.734
LCLC-103H; first compound 0.05 µM
  relative viability: 0.73
LCLC-103H; first compound 0.1581 µM
  relative viability: 0.751
LCLC-103H; first compound 0.5 µM
  relative viability: 0.724
LCLC-97TM1; first compound 0.005 µM
  relative viability: 0.205
LCLC-97TM1; first compound 0.01581 µM
  relative viability: 0.164
LCLC-97TM1; first compound 0.05 µM
  relative viability: 0.211
LCLC-97TM1; first compound 0.1581 µM
  relative viability: 0.127
LCLC-97TM1; first compound 0.5 µM
  relative viability: 0.111
LXF-289; first compound 0.005 µM
  relative viability: 0.387
LXF-289; first compound 0.01581 µM
  relative viability: 0.312
LXF-289; first compound 0.05 µM
  relative viability: 0.314
LXF-289; first compound 0.1581 µM
  relative viability: 0.227
LXF-289; first compound 0.5 µM
  relative viability: 0.197
NCI-H1395; first compound 0.005 µM
  relative viability: 0.634
NCI-H1395; first compound 0.01581 µM
  relative viability: 0.688
NCI-H1395; first compound 0.05 µM
  relative viability: 0.529
NCI-H1395; first compound 0.1581 µM
  relative viability: 0.368
NCI-H1395; first compound 0.5 µM
  relative viability: 0.364
NCI-H1437; first compound 0.005 µM
  relative viability: 0.498
NCI-H1437; first compound 0.01581 µM
  relative viability: 0.442
NCI-H1437; first compound 0.05 µM
  relative viability: 0.48
NCI-H1437; first compound 0.1581 µM
  relative viability: 0.338
NCI-H1437; first compound 0.5 µM
  relative viability: 0.268
NCI-H1650; first compound 0.005 µM
  relative viability: 0.294
NCI-H1650; first compound 0.01581 µM
  relative viability: 0.286
NCI-H1650; first compound 0.05 µM
  relative viability: 0.276
NCI-H1650; first compound 0.1581 µM
  relative viability: 0.17
NCI-H1650; first compound 0.5 µM
  relative viability: 0.172
NCI-H1792; first compound 0.01581 µM
  relative viability: 0.647
NCI-H1792; first compound 0.05 µM
  relative viability: 0.387
NCI-H1792; first compound 0.1581 µM
  relative viability: 0.251
NCI-H1792; first compound 0.5 µM
  relative viability: 0.205
NCI-H1793; first compound 0.005 µM
  relative viability: 0.585
NCI-H1793; first compound 0.01581 µM
  relative viability: 0.35
NCI-H1793; first compound 0.05 µM
  relative viability: 0.336
NCI-H1793; first compound 0.1581 µM
  relative viability: 0.212
NCI-H1793; first compound 0.5 µM
  relative viability: 0.237
NCI-H1944; first compound 0.005 µM
  relative viability: 0.335
NCI-H1944; first compound 0.01581 µM
  relative viability: 0.347
NCI-H1944; first compound 0.05 µM
  relative viability: 0.319
NCI-H1944; first compound 0.1581 µM
  relative viability: 0.194
NCI-H1944; first compound 0.5 µM
  relative viability: 0.151
NCI-H2087; first compound 0.005 µM
  relative viability: 0.316
NCI-H2087; first compound 0.01581 µM
  relative viability: 0.225
NCI-H2087; first compound 0.05 µM
  relative viability: 0.303
NCI-H2087; first compound 0.1581 µM
  relative viability: 0.109
NCI-H2087; first compound 0.5 µM
  relative viability: 0.133
NCI-H2405; first compound 0.005 µM
  relative viability: 0.666
NCI-H2405; first compound 0.01581 µM
  relative viability: 0.569
NCI-H2405; first compound 0.05 µM
  relative viability: 0.503
NCI-H2405; first compound 0.1581 µM
  relative viability: 0.342
NCI-H2405; first compound 0.5 µM
  relative viability: 0.321
NCI-H3122; first compound 0.005 µM
  relative viability: 0.459
NCI-H3122; first compound 0.01581 µM
  relative viability: 0.383
NCI-H3122; first compound 0.05 µM
  relative viability: 0.374
NCI-H3122; first compound 0.1581 µM
  relative viability: 0.228
NCI-H3122; first compound 0.5 µM
  relative viability: 0.26
NCI-H322M; first compound 0.005 µM
  relative viability: 0.687
NCI-H322M; first compound 0.01581 µM
  relative viability: 0.608
NCI-H322M; first compound 0.05 µM
  relative viability: 0.472
NCI-H322M; first compound 0.1581 µM
  relative viability: 0.472
NCI-H322M; first compound 0.5 µM
  relative viability: 0.448
NCI-H647; first compound 0.005 µM
  relative viability: 0.307
NCI-H647; first compound 0.01581 µM
  relative viability: 0.239
NCI-H647; first compound 0.05 µM
  relative viability: 0.258
NCI-H647; first compound 0.1581 µM
  relative viability: 0.108
NCI-H647; first compound 0.5 µM
  relative viability: 0.0719
NCI-H727; first compound 0.005 µM
  relative viability: 0.964
NCI-H727; first compound 0.01581 µM
  relative viability: 0.713
NCI-H727; first compound 0.05 µM
  relative viability: 0.443
NCI-H727; first compound 0.1581 µM
  relative viability: 0.474
NCI-H727; first compound 0.5 µM
  relative viability: 0.522
RERF-LC-KJ; first compound 0.005 µM
  relative viability: 0.677
RERF-LC-KJ; first compound 0.01581 µM
  relative viability: 0.568
RERF-LC-KJ; first compound 0.05 µM
  relative viability: 0.475
RERF-LC-KJ; first compound 0.1581 µM
  relative viability: 0.342
RERF-LC-KJ; first compound 0.5 µM
  relative viability: 0.29
SK-LU-1; first compound 0.005 µM
  relative viability: 0.526
SK-LU-1; first compound 0.01581 µM
  relative viability: 0.565
SK-LU-1; first compound 0.05 µM
  relative viability: 0.524
SK-LU-1; first compound 0.1581 µM
  relative viability: 0.462
SK-LU-1; first compound 0.5 µM
  relative viability: 0.372
